Source: patent publication US10227323B2, “Glucosylceramide synthase inhibitors for the treatment of diseases” (BIOMARIN PHARMACEUTICAL INC., priority 2013, dated 2019)

target: T1, GCS (Canis lupus familiaris, UniProt A0A8I3MXG6); assay: Assay 1: GCS Enzymatic Assay (MDCK cell lysate, C6-NBD-Ceramide, LC/MS); assay type: biochemical, canine; settings: Table 2; data marked by *
T1 sequence (A0A8I3MXG6 1-394): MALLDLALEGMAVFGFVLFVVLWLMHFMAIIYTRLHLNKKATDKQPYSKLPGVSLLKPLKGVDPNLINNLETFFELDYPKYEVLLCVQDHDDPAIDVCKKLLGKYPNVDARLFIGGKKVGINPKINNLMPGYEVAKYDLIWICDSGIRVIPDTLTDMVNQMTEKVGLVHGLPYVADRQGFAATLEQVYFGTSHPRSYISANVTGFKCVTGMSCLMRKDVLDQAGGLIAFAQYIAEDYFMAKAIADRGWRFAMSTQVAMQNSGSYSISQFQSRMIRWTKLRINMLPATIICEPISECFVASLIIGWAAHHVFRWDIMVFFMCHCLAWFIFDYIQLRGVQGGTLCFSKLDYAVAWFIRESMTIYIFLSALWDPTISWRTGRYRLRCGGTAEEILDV
Outline: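 LC/MS/MS measurement of glucosylceramide and NBD-ceramide after a 1 h, 37 °C reaction with 100 μM UDP-glucose and 10 μM C6-NBD-ceramide gave IC50s or percent inhibition.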

Row | Compound | % inhibition generated from Assay 1
1 | O=C(N[C@H](CN1CCCC1)[C@H](O)c1ccc(OC2CC2)c(Cl)c1)C(F)(F)c1csc(-c2ccc(F)cc2)n1 [Compound 213, N-((1R,2R)-1-(3-chloro-4-cyclopropoxyphenyl)-1-hydroxy-3-(pyrrolidin-1-yl)propan-2-yl)-2,2-difluoro-2-(2-(4-fluorophenyl)thiazol-4-yl)acetamide] | B* (the compound had a % inhibition of greater than or equal to about 3% but less than about 50%)
2 | O=C(N[C@H](CN1CCCC1)[C@H](O)c1ccc(OC2CC2)c(Cl)c1)C(=O)c1cnc(-c2ccc(F)cc2)s1 [Compound 215, N-((1R,2R)-1-(3-chloro-4-cyclopropoxyphenyl)-1-hydroxy-3-(pyrrolidin-1-yl)propan-2-yl)-2-(2-(4-fluorophenyl)thiazol-5-yl)-2-oxoacetamide] | B* (the compound had a % inhibition of greater than or equal to about 3% but less than about 50%)
3 | O=C(N[C@H](CN1CCCC1)[C@H](O)c1ccc(OC2CC2)c(Cl)c1)C(F)(F)c1ccc(-c2ccc(F)cc2)s1 [Compound 218, N-((1R,2R)-1-(3-chloro-4-cyclopropoxyphenyl)-1-hydroxy-3-(pyrrolidin-1-yl)propan-2-yl)-2,2-difluoro-2-(5-(4-fluorophenyl)thiophen-2-yl)acetamide] | B* (the compound had a % inhibition of greater than or equal to about 3% but less than about 50%)
4 | O=C(N[C@H](CN1CCCC1)[C@H](O)c1ccc(OC2CC2)c(Cl)c1)C(=O)c1ccc(-c2ccc(F)cc2)s1 [Compound 219, N-((1R,2R)-1-(3-chloro-4-cyclopropoxyphenyl)-1-hydroxy-3-(pyrrolidin-1-yl)propan-2-yl)-2-(5-(4-fluorophenyl)thiophen-2-yl)-2-oxoacetamide] | A* (the compound had a % inhibition of a percent inhibition of greater than or equal to about 50%)
5 | O=C(N[C@H](CN1CCCC1)[C@H](O)c1cc(F)c2c(c1)OCCO2)C(F)(F)c1csc(-c2ccc(F)cc2)n1 [Compound 221, 2,2-difluoro-N-((1R,2R)-1-(8-fluoro-2,3-dihydrobenzo[b][1,4]dioxin-6-yl)-1-hydroxy-3-(pyrrolidin-1-yl)propan-2-yl)-2-(2-(4-fluorophenyl)thiazol-4-yl)acetamide] | A* (the compound had a % inhibition of a percent inhibition of greater than or equal to about 50%)
6 | O=C(N[C@H](CN1CCCC1)[C@H](O)c1ccc(OC2CC2)c(Cl)c1)C(F)(F)c1cnc(-c2ccc(F)cc2)s1 [Compound 222, N-((1R,2R)-1-(3-chloro-4-cyclopropoxyphenyl)-1-hydroxy-3-(pyrrolidin-1-yl)propan-2-yl)-2,2-difluoro-2-(2-(4-fluorophenyl)thiazol-5-yl)acetamide] | B* (the compound had a % inhibition of greater than or equal to about 3% but less than about 50%)
7 | Cn1ncc2cc(C(=O)C(=O)N[C@H](CN3CCCC3)[C@H](O)c3ccc(OC4CC4)c(Cl)c3)ccc21 [Compound 224, N-((1R,2R)-1-(3-chloro-4-cyclopropoxyphenyl)-1-hydroxy-3-(pyrrolidin-1-yl)propan-2-yl)-2-(1-methyl-1H-indazol-5-yl)-2-oxoacetamide] | A* (the compound had a % inhibition of a percent inhibition of greater than or equal to about 50%)
8 | O=C(N[C@H](CN1CCCC1)[C@H](O)c1ccc(OC2CC2)c(Cl)c1)C(=O)c1ccc2sc(Cl)cc2c1 [Compound 225, N-((1R,2R)-1-(3-chloro-4-cyclopropoxyphenyl)-1-hydroxy-3-(pyrrolidin-1-yl)propan-2-yl)-2-(2-chlorobenzo[b]thiophen-5-yl)-2-oxoacetamide] | B* (the compound had a % inhibition of greater than or equal to about 3% but less than about 50%)
9 | O=C(N[C@H](CN1CCCC1)[C@H](O)c1cc(F)c2c(c1)OCCO2)C(=O)c1csc(-c2ccc(F)cc2)n1 [Compound 226, N-((1R,2R)-1-(8-fluoro-2,3-dihydrobenzo[b][1,4]dioxin-6-yl)-1-hydroxy-3-(pyrrolidin-1-yl)propan-2-yl)-2-(2-(4-fluorophenyl)thiazol-4-yl)-2-oxoacetamide] | B* (the compound had a % inhibition of greater than or equal to about 3% but less than about 50%)

same assay, conditions: Table 2; data without asterisk; read-out: IC50 (nM) generated from Assay 1

Row | IC50 | Compound
10 | < 50 nM | Cn1ncc2cc(-c3ccc(C(F)(F)C(=O)N[C@H](CN4CCCC4)[C@H](O)c4ccc5c(c4)OCCO5)cc3)ccc21 [Compound 212, N-((1R,2R)-1-(2,3-dihydrobenzo[b][1,4]dioxin-6-yl)-1-hydroxy-3-(pyrrolidin-1-yl)propan-2-yl)-2,2-difluoro-2-(4-(1-methyl-1H-indazol-5-yl)phenyl)acetamide]
11 | < 50 nM | O=C(N[C@H](CN1CCCC1)[C@H](O)c1ccc(OC2CC2)c(Cl)c1)C(=O)c1ccc(-c2ccccn2)cc1 [Compound 214, N-((1R,2R)-1-(3-chloro-4-cyclopropoxyphenyl)-1-hydroxy-3-(pyrrolidin-1-yl)propan-2-yl)-2-oxo-2-(4-(pyridin-2-yl)phenyl)acetamide]
12 | < 50 nM | Cn1ncc2cc(C(=O)C(=O)N[C@H](CN3CCCC3)[C@H](O)c3ccc4c(c3)OCCO4)ccc21 [Compound 216, N-((1R,2R)-1-(2,3-dihydrobenzo[b][1,4]dioxin-6-yl)-1-hydroxy-3-(pyrrolidin-1-yl)propan-2-yl)-2-(1-methyl-1H-indazol-5-yl)-2-oxoacetamide]
13 | < 50 nM | Cn1ncc2cc(C(=O)C(=O)N[C@H](CN3CCCC3)[C@H](O)c3cc(F)c4c(c3)OCCO4)ccc21 [Compound 217, N-((1R,2R)-1-(8-fluoro-2,3-dihydrobenzo[b][1,4]dioxin-6-yl)-1-hydroxy-3-(pyrrolidin-1-yl)propan-2-yl)-2-(1-methyl-1H-indazol-5-yl)-2-oxoacetamide]
14 | < 50 nM | Cn1ncc2cc(-c3ccc(C(=O)C(=O)N[C@H](CN4CCCC4)[C@H](O)c4cc(F)c5c(c4)OCCO5)cc3)ccc21 [Compound 220, N-((1R,2R)-1-(8-fluoro-2,3-dihydrobenzo[b][1,4]dioxin-6-yl)-1-hydroxy-3-(pyrrolidin-1-yl)propan-2-yl)-2-(4-(1-methyl-1H-indazol-5-yl)phenyl)-2-oxoacetamide]
15 | < 50 nM | Cn1ncc2cc(-c3ccc(C(=O)C(=O)N[C@H](CN4CCC4)[C@H](O)c4cc(F)c5c(c4)OCCO5)cc3)ccc21 [Compound 223, N-((1R,2R)-3-(azetidin-1-yl)-1-(8-fluoro-2,3-dihydrobenzo[b][1,4]dioxin-6-yl)-1-hydroxypropan-2-yl)-2-(4-(1-methyl-1H-indazol-5-yl)phenyl)-2-oxoacetamide]
16 | < 50 nM | O=C(N[C@H](CN1CCC1)[C@H](O)c1cc(F)c2c(c1)OCCO2)C(=O)c1ccc(N2CCCCC2)cc1 [Compound 227, N-((1R,2R)-3-(azetidin-1-yl)-1-(8-fluoro-2,3-dihydrobenzo[b][1,4]dioxin-6-yl)-1-hydroxypropan-2-yl)-2-oxo-2-(4-(piperidin-1-yl)phenyl)acetamide]
17 | < 50 nM | O=C(N[C@H](CN1CCCC1)[C@H](O)c1cc(F)c2c(c1)OCCO2)C(=O)c1ccc(-c2ccccn2)cc1 [Compound 228, N-((1R,2R)-1-(8-fluoro-2,3-dihydrobenzo[b][1,4]dioxin-6-yl)-1-hydroxy-3-(pyrrolidin-1-yl)propan-2-yl)-2-oxo-2-(4-(pyridin-2-yl)phenyl)acetamide]
